Test results published in patent US20090062370A1, “Method for increasing the speed of recovery and/or the speed of wound healing of injured animals” (priority 2005, published 2009).

How the values were obtained:
wounded animals = experiment: Feeding of wounded animals with supplemented feed (general description, daily intake titration); assay type: in vivo
Text: Phytohormones and beta-glucans appeared to work in a wide range of concentrations for improving the speed of wound healing in animals. The optimal concentrations may vary between different species, however, the skilled person will know how to obtain an optimal concentration for a given species, for instance by titration of the desired compound into the animal feed and testing when this would have the optimal effect. The following may serve as guidance in this process.
A skilled person will appreciate that the amount of free IAA in the ready to use feed has to be adjusted in order to supply the animal with an effective amount of free IAA. In order to adjust the free IAA concentration in the feed so that a certain daily intake of free IAA is achieved, an estimate has to be made of the feed intake of an animal or animal group. A skilled person is aware of the feed intake of a (particular kind or group of) animal(s), typically, the feed intake per day is between 0.5 and 10% of the body weight of the animal, with occasional exceptions as high as 20%. Elderly animals tend to eat less and are considered to have a feed intake per day between 0.1 and 5%, typically of 1% of their body mass.

humans = details: single doses of 0.1 g/kg body weight; cited from earlier work
fibroblasts = details: cited from earlier work
[1] = test system: koi fish suffering from wounds as a result of parasites; experiment: Wound healing of koi fish in ponds fed fish feed according to the invention; assay type: in vivo; details: scale 1 (very slow recovery) to 5 (very fast recovery)
Text: Four ponds of 40 cubic meters each, each containing 50 koi fish with an approximate total body weight of 50 kg were used to establish the effect of the fish feed according to the invention on wound healing. One pond (pond 1) served as a control were the fish were fed with control feed, the fish in the other ponds received a feed according to the invention as prepared in examples 6 to 8 above.
The fish in control pond were fed with 10 gram Cyprico White 3 mm floater feed per day, whereas the fish in the other ponds were fed with 10 gram of the feed as described in Example 2, 3 and 4 (Table 2). About 10% of all fish suffered from wounds as a result of parasites.
The veterinarian filled in a questionnaire on the recovery process of the fish, Table 3. Criterion was the speed of disappearance of the wounds. This criterion was scored on a scale ranging from 1 to 5 wherein 1 was very slow recovery and 5 very fast recovery. This criterion was scored 1, 2, 4, 7 and 21 days of feeding.

surgical wound = details: oral supplementation of 50 mg of zinc three times per day, as zinc sulfate; cited from earlier work

## 1.3 and 1.6 beta glucans
Wounded animals; in feed
  optimal daily intake (optimal results / optimum between cost and benefit): around 5 mg/kglw/day

## O=C(O)Cc1c[nH]c2ccccc12 [free IAA, indole-3-acetic acid]
humans
  toxicity of single doses: non-toxic
fibroblasts
  effect on the migration of fibroblasts in vitro: had an effect
Wounded animals; feed with 0.4 mg/kglw/day
  effect on recovery of wounded animals: very effective
[1]; 1 day of feeding
  Wound healing score: 1
[1]; 2 days of feeding
  Wound healing score: 1
[1]; 4 days of feeding
  Wound healing score: 2
[1]; 7 days of feeding
  Wound healing score: 3
[1]; 21 days of feeding
  Wound healing score: 4

## C=C1C[C@]23C[C@@]1(O)CC[C@H]2[C@@]12C=C[C@H](O)[C@@](C)(C(=O)O1)[C@H]2[C@@H]3C(=O)O [gibberellin, gibberellic acid]
fibroblasts
  effect on the migration of fibroblasts in vitro: not

## O=S(=O)([O-])[O-].[Zn+2] [zinc, zinc sulfate]
Surgical wound
  reduction of healing time of a surgical wound: 43%
